We go through two compounds from ChEMBL document CHEMBL1128811, “Isolation and structure of the exceptional Pterobranchia human cancer inhibitors cephalostatins 16 and 171” (1995).

What all share (assay type): functional
Assay [1] concerns Tumor Cell line. Description: In vitro cytotoxic potency against 60 human tumor cell lines at 10e-8 M concentration.
A further assay has as its system P388. As to the kind of experiment: Effective dose against P388 cell line […]. As to conditions: Mus musculus, read-out: ED50 (the source's name).
In assay [2] the test system is Tumor Cell line. As to the kind of experiment: In vitro cytotoxic potency against 60 human tumor cell lines at 10e-7 M concentration.

`C[C@@H]1[C@H]2CC=C3[C@@H]4CC[C@H]5Cc6nc7c(nc6C[C@]5(C)[C@@]4(O)CC(=O)[C@@]32CO[C@]12OC(C)(C)C[C@H]2O)C[C@@H]1CC[C@H]2C3=C[C@@H]4O[C@@]5(CC[C@](C)(O)CO5)[C@@H](C)[C@]4(O)[C@@]3(C)[C@H](O)C[C@@H]2[C@@]1(C)C7` [CEPHALOSTATIN 16] came in with a GI50 in the assay on Tumor Cell line [1] of around 1 nM. The EC50 in the assay on P388 was below 1 ng/mL.

Regarding `C[C@@H]1[C@]2(O[C@H]3C=C4[C@@H]5CC[C@H]6Cc7nc8c(nc7C[C@]6(C)[C@H]5C[C@@H](O)[C@]4(C)[C@]31O)C[C@@H]1CC[C@H]3C4=CC[C@@H]5[C@H](C)[C@@]6(OC[C@]45C(=O)C[C@@H]3[C@@]1(C)C8)OC(C)(C)C[C@H]6O)O[C@](C)(CO)C[C@H]2O` [CEPHALOSTATIN 1], in the assay on Tumor Cell line [2], the GI50 was around 1 nM.
